Measurements as given in patent US12318369B2, “Analgesic and antipruritic pharmacertical composition and application thereof” (KEVICI (SHANGHAI) PHARMACEUTICAL CO., LTD., priority 2020, dated 2025).
“Also recorded” adds a separate entry of the source.

Tests used:
[1] = tested on: SNI-induced neuropathic pain C57/BJ6 mice; test: SNI-induced neuropathic pain mouse model, mechanical pain threshold (PWT) by Von Frey; format: in vivo
Procedure: C57/BJ6 mice aged 5-6 weeks were purchased from Shanghai SLAC Laboratory Animal Co., Ltd and fed for 6 months. After that, the mice were placed in a transparent plexiglass chamber on an iron support. 30 minutes later, the baseline mechanical threshold (paw withdrawal threshold, PWT) of the mice was detected by Von Frey (DanMicGlobal, CA, USA). The average threshold of the mice was 1.54+0.07 g (see FIG. 1). The spared nerve injury (SNI)-induced neuropathic pain C57/BJ6 mouse model was established according to Pertin, M et al (Pertin, M., Gosselin, RD., Decosterd, I. (2012). The Spared Nerve Injury Model of Neuropathic Pain. In: Luo, Z. (eds) Pain Research. Methods in Molecular Biology, vol 851. Humana Press). The SNI-induced neuropathic pain mice were measured for the mechanical pain threshold using Von Frey respectively at 2 weeks, 4 weeks and 6 weeks post operation.
The mechanical pain threshold of mice was tested 1 hour after injection. […] Among them, the mice with poor response (ΔPWT≤ 0.2 g) accounted for 10% (2/20) of all tested mice.
20 μg/kg GNE-0439 and 90 μg/kg PF-04885614 were intraperitoneally injected into SNI mice at 6 weeks post operation. One hour later, the mechanical threshold of mice was measured using Von Frey.

[2] = tested on: neuropathic pain patients; details: clinical use; cited from earlier work
[3] = Side effects observed in SNI mice after intraperitoneal injection
[4] = tested on: subjects with painful diabetic peripheral neuropathy; details: randomised, placebo-controlled, double-blind clinical study; cited from earlier work

SMILES: CC(C)(N)c1ncc(-c2ccc(OC(F)(F)F)cc2)[nH]1 [PF-04885614]
- mice with poor response (ΔPWT≤0.2 g) ([1]; 45 μg/kg i.p., 2 weeks post operation (2/18)): 11.1%
- threshold increase compared with the control group ([1]; 45 μg/kg i.p., 4 weeks post operation): no statistically significant difference
- mice with poor response (ΔPWT≤0.2 g) ([1]; 45 μg/kg i.p., 4 weeks post operation (10/19)): 52.6%
- mice with poor response (ΔPWT≤0.2 g) ([1]; 45 μg/kg i.p., 6 weeks post operation (13/17)): 76.5%
- increase of mechanical pain threshold (ΔPWT) ([1]; 45 μg/kg i.p., SNI mice 2 weeks post operation): 0.86 ± 0.14 g
- increase of mechanical pain threshold (ΔPWT) ([1]; 45 μg/kg i.p., SNI mice 4 weeks post operation): 0.21 ± 0.04 g
- increase of mechanical pain threshold (ΔPWT) ([1]; 45 μg/kg i.p., SNI mice 6 weeks post operation): 0.10 ± 0.04 g
- fraction of PF-05089771 poor responders that well responded ([1]; 90 μg/kg PF-04885614, 6 weeks post SNI operation): half

SMILES: CCCC1CCC(c2ccc(C(=O)N[C@H](C(=O)O)C(C)C)cc2)CC1 (stereo partly shown) [GNE-0439]
- ΔPWT ([1]; single administration, 20 μg/kg i.p., SNI mice 6 weeks post operation, one hour after injection): 0.77 ± 0.14 g

SMILES: NCC1(CC(=O)O)CCCCC1 [Gabapentin]
- effect on mechanical pain of SNI mice ([1]; 100 mg/kg i.p., 6 weeks post operation): relieve effect
- accompanying side effects in patients [2]: sedation effects (such as drowsiness, fatigue and dizziness)
- side effects ([3]; 100 mg/kg Gabapentin): sedative side effects

SMILES: Nc1n[nH]cc1-c1cc(Cl)ccc1Oc1cc(F)c(S(=O)(=O)Nc2cscn2)cc1Cl [PF-05089771]
- mice with poor response (ΔPWT≤0.2 g) ([1]; 2 mg/kg i.p., 2 weeks post operation (2/20)): 10%
- mice with poor response (ΔPWT≤0.2 g) ([1]; 2 mg/kg i.p., 4 weeks post operation (10/24)): 41.7%
- mice with poor response (ΔPWT≤0.2 g) ([1]; 2 mg/kg i.p., 6 weeks post operation (16/28)): 57.1%
- increase of mechanical pain threshold (ΔPWT) ([1]; 2 mg/kg i.p., SNI mice 2 weeks post operation, 1 hour after injection): 0.77 ± 0.10 g
- increase of mechanical pain threshold (ΔPWT) ([1]; 2 mg/kg i.p., SNI mice 4 weeks post operation, 1 hour after injection): 0.39 ± 0.07 g
- increase of mechanical pain threshold (ΔPWT) ([1]; 2 mg/kg i.p., SNI mice 6 weeks post operation, 1 hour after injection): 0.17 ± 0.03 g
- fraction of total mice that poorly responded (ΔPWT≤0.2 g) ([1]; 2 mg/kg, 6 weeks post SNI operation (8/12, Table 1)): 2/3
- efficacy in treatment of diabetic neuropathic pain [4]: poor efficacy

SMILES: CC(C)C[C@H](CN)CC(=O)O [Pregabalin]
- accompanying side effects in patients [2]: sedation effects (such as drowsiness, fatigue and dizziness)

SMILES: COc1ccc(Cl)c(-c2ccc(NC(=O)c3ccnn3C)nc2N)c1 [PF-04531083]
- side effects ([3]; 10 mg/kg PF-04531083 (effective dose)): obvious side effects such as sedation and weight loss; also recorded: significant side effects such as sedation and weight loss
